Data published in US20100004333A1, “COMPOSITIONS AND METHODS FOR TREATING CARDIOVASCULAR DISORDERS” (priority 2004, published 2010).
Marks after values point to notes of the source that are not given here.

Tested on: apoE−/− mice
Assay: Histology of lesions: total cells, macrophages (F4/80), extra-cellular matrix (collagen) in apoE−/− mice
Assay type: in vivo
Details: for % ECM of total lesion area / % Mφ of total lesion area / ECM area / Lesion area (extra-cellular matrix series) / Lesion area (macrophage series) / Mφ area / Lesion area (total cell density series) / Total cells/μm^2 / Total number of cells: mean ± SD
From the text: The materials and methods used were essentially as described under Example 1. In addition, for total cell numbers, nuclei were counted in hematoxylin and eosin-stained sections and expressed per lesion area. At the sinus, sections were taken ˜200 μm from the first appearance of the leaflets. Sections at the thoracic and abdominal aorta were taken at the branch point of the 3rd pair of intra-costal arteries and the celiac artery, respectively. For macrophages, 4 μm paraffin sections were deparaffinized, rehydrated and endogenous peroxidase quenched with 3% hydrogen peroxide (15 min). Enzymatic antigen retrieval was performed in trypsin (1 mg/mL) solutions pH 7.7 containing 4 mM CaCl2 and 200 mM Tris for 30 min at 37° C., followed by a 20 min incubation in 5% normal rabbit blocking serum. Sections were then incubated overnight in a humidified chamber and at 4° C. with monoclonal rat-anti-mouse F4/80 antibody (Caltag Laboratories; dilution 1:20), followed by biotinylated rabbit anti-rat IgG (Vector Laboratories; dilution 1:200, 30 min), Vectorstain Elite ABC reagent (Vectorstain Elite ABC Kit, Vector Laboratories; 30 min), and 3,3′-diaminobenzidine substrate-chromogen (Dako Corporation) with counterstaining using Harris hematoxylin. Images were captured using a Zeiss Axiophot Photomicroscope, and the area staining positive for F4/80 antigen expressed as a percentage of the total lesion area. Collagen was determined as described in Histochemical Journal 1979, 11:447-455. Briefly, 4 μm sections were deparaffinized, rehydrated and stained with 0.1% Sirius red (Fast red F3B) in saturated aqueous picric acid (pH 2.0) for 1 h at room temperature and then transferred to a solution of 0.01 N HCl for 2 min followed by counterstaining in Harris hematoxylin for 1 min. Total lesion area were measured from bright field images captured with an Olympus BX60 photomicroscope attached with a SPOT digital camera, whereas the birefringent area staining positive for Sirius red was detected using polarization microscopy and expressed as a percentage of the total lesion area at that site.

[1] = descending aorta, versus control

For `CC(C)(Sc1cc(C(C)(C)C)c(O)c(C(C)(C)C)c1)Sc1cc(C(C)(C)C)c(O)c(C(C)(C)C)c1` [probucol], the “% ECM of total lesion area” value (Sinus, n = 6) was 66±13%, the “% Mφ of total lesion area” value (Sinus, n = 6) was 14 ± 5^a % and the ECM area (Sinus, n = 6) was 577 ± 126^a μm^2 × 10^−3. The “Lesion area (extra-cellular matrix series)” value (Sinus, n = 6) was 878 ± 153^a μm^2 × 10^−3, the “Lesion area (macrophage series)” value (Sinus, n = 6) was 886 ± 89^a μm^2 × 10^−3 and the Mφ area (Sinus, n = 6) was 127 ± 53 ^ μm^2 × 10^−3. The “% ECM of total lesion area” value (Sinus, n = 6, listed as Probucol) was 66 ± 13^a %, the “Lesion area (total cell density series)” value (Sinus, n = 8) was 889 ± 254^a μm^2 × 10^−3 and the “Total cells/μm^2” value (Sinus, n = 8) was 1.7 ± 0.6^a cells/μm^2. For the same compound, the “Total number of cells” value (Sinus, n = 8) was 1423 ± 441 ^, the “% ECM of total lesion area” value (T/A, n = 6) was 0.0 ± 0.0^a % and the “% Mφ of total lesion area” value (T/A, n = 6) was 99.4 ± 1.4 ^ %. The ECM area (T/A, n = 6) was 0.0 ± 0.0^a μm^2 × 10^−3, the “Lesion area (extra-cellular matrix series)” value (T/A, n = 6) was 13 ± 3^a μm^2 × 10^−3 and the “Lesion area (macrophage series)” value (T/A, n = 6) was 22 ± 15^a μm^2 × 10^−3. The “Lesion area (total cell density series)” value (T/A, n = 6) was 22 ± 15^a μm^2 × 10^−3, the Mφ area (T/A, n = 6) was 21 ± 12^a μm^2 × 10^−3 and the “Total cells/μm^2” value (T/A, n = 6) was 0.36 ± 0.39^ cells/μm^2. The “Total number of cells” value (T/A, n = 6) was 10 ± 13^a, the Decrease in macrophages [1] was ~91% and the “Decrease in total cell numbers” value [1] was ~91%. The “Decrease in percentage of lesion area covered by macrophages” value (sinus, versus control) was ~50%.
